Like-named read-outs stand apart in the source and are kept apart here. Starred links: 1 amine or outer side, 2 acyl side, 3 side chain; linkers in the order of their positions; H or OH if unused. Positions of bridges follow the written chain, without caps; N, C: chain ends. Non-standard residues stand in square brackets, D forms with d. Residues, ends and D or L forms follow the SMILES beside them. Chains are numbered I, II in the order given. Actinocin(9to1) = Cc1c2oc3c(C)ccc(C(=O)[*:1])c3nc-2c(C(=O)[*:2])c(N)c1=O; NMeV = CN[C@H](C(=O)O)C(C)C; Sar = CNCC(=O)O
What was measured:
P388/MTX = experiment: In vivo activity against drug resistant tumour P388/MTX; parameters: species or system mouse; details: optimum dose 3.0 mg/kg
Method: (§1) CD2-F1 mice, of the same sex, weighing within a 3 gram range surrounding 20 g, are used for this test. Control and test animals are injected intraperitoneally with a suspension of 10^6 viable P388/O tumour cells on day 0. In each test several dose levels which bracket the LD20 for the compound are evaluated; each dose level group contains 6 animals. The test compounds are prepared either in physiologic saline containing 0.05% Tween 80 or distilled water containing 5% dextrose and are administered intraperitoneally on days 1,5 and 9 relative to tumour implant. Doses are on a mg/kg basis according to individual animals' body weights. The day of death for each animal is recorded and the median day of death identified for each group. The difference between the median survival time for treated and control groups is expressed as a percentage increase in life span (% ILS).
(§2) E. Activity Against Drug-Resistant Tumours
(§3) Using a similar procedure to the Lymphocytic Leukaemia P388/O test, the compound of Example 1 was evaluated against P388/O tumours which had been made resistant to the following standard, clinically used anti-tumour agents: […]

microtubule function = details: cited from earlier work
P388/ActD = experiment: In vivo activity against drug resistant tumour P388/ActD; parameters: species or system mouse; details: optimum dose 0.5 mg/kg
Method: as §1, §2, §3

P388/BCNU = experiment: In vivo activity against drug resistant tumour P388/BCNU; parameters: species or system mouse; details: optimum dose 2.0 mg/kg
Method: as §1, §2
Using a similar procedure to the Lymphocytic Leukaemia P388/O test, the compound of Example 1 was evaluated against P388/O tumours which had been made resistant to the following standard, clinically used anti-tumour agents:
bis-chloronitrosourea (BCNU)

P388/Cis--Pt = experiment: In vivo activity against drug resistant tumour P388/Cis-Pt; parameters: species or system mouse; details: optimum dose 5.3 mg/kg
P388/O tumour = experiment: Lymphocytic leukaemia P388/O test; format: in vivo, mouse; details: Mus musculus, P388, ip
Method: C. Lymphocytic Leukemia P388/O Test
as §1

P388 D1 cells = experiment: P388 D1 colony-forming assay; format: cell-based; details: Mus musculus
Method: B) P338D1 Colony-forming Assay
In this assay, cells from an in vitro-adapted line of the mouse lymphoid neoplasm, P388 are first exposed to serially diluted concentrations of test compound over a 24 hour period in culture. Thereafter, the ability of such treated cells to form discrete colonies over a 14 day period after resuspension in a semi-solid drug-free medium is determined.
Initially cells in log growth are plated into individual 25 cm^2 tissue culture flasks each containing a final volume of 5 mls of Hepes buffered RPMI 1640 culture medium supplemented with 10 percent foetal calf serum, antibiotics and test compound. All compounds are formulated initially at appropriate concentrations in DMSO, 25 microliters of which is then added to each flask. All compounds are evaluated at concentrations ranging serially in four fold decrements from a top concentration some four fold greater than that already known to inhibit the proliferation of these cells by about 80 to 90 percent in the primary proliferative assay.
After 24 hrs exposure to the test compound the cells are counted and a known number of live cells transferred to a 15 ml centrifuge tube to which 4 mls of a 0.25 percent low temperature gelling agarose solution in complete RPMI tissue culture medium is then added. After 13 days incubation at 37° C., 1 ml of 1% p-Iodonitrotetrazolium violet is added to the top of each tube and allowed to permeate through the agarose for a further 24 to 48 hrs. This dye is metabolised by living cells to produce an insoluble red crystalline product which facilitates counting of the colonies. Samples are taken from each tube and the number of colonies containing a minimum of 50 cells is determined. The concentration of compound necessary to inhibit colony formation by 50 percent relative to that of control cells incubated under identical conditions but in the absence of the test compound is determined.

[1] = tested on: A549 human lung carcinoma cells; experiment: In vitro activity against human tumour cell line A549 (proliferation); format: cell-based; details: A549, 96 h
Method: (§4) Cells from the human tumour cell lines DLD-1, HCT-116, WiDr and A549 are exposed to serially diluted concentrations of test compounds over a 96 hour period in culture. The ability of such cells to proliferate over the test period is determined.
(§5) Cells in log growth are plated into 96 well multiwell tissue culture dishes in 100 μl/well of RPMI 1640 culture medium supplemented with 10% foetal calf serum, antibiotics and test compound. All compounds are formulated initially at appropriate concentrations in DMSO, the final concentrations in this solvent being twenty times that required in the plate. A final 1 in 10 dilution in complete medium is then made before adding 100 μl to each well of the plate. All compounds are evaluated at concentrations ranging serially in four fold decrements from a top concentration some four fold greater than that already known to inhibit the proliferation of cells from the mouse lymphoid neoplasm, P388D1 by about 80 to 90 percent in a primary proliferative assay.
(§6) After 96 hours the proliferation of cells exposed to test compound is compared with control untreated cells by one of two methods:
(§7) b) 20 μl of MTT (5 mg/ml in PBS) is added to each well. After an incubation period of 4 hours the medium from each well is aspirated and replaced with 200 μl DMSO to dissolve the formazan crystals formed. Absorbances are read by an ELISA plate spectrophotometer at a wavelength of 540 nm. The IC50 is defined as that concentration of drug which decreases absorbance to 50% of that in control (drug-free) cultures. This method is used for the WiDr, HCT-116 and A549 cell lines.

LD20 (Mouse) = format: in vivo; details: i.p. days 1, 5 and 9, CD2-F1 mice, observed up to 14 days
[2] = tested on: HCT-116 human colon carcinoma cells; experiment: In vitro activity against human tumour cell line HCT-116 (proliferation); format: cell-based; details: HCT-116, 96 h
Method: as §4, §5, §6, §7

[3] = tested on: WiDr human colon adenocarcinoma cells; experiment: In vitro activity against human tumour cell line WiDr (proliferation); format: cell-based; details: 96 h
Method: as §4, §5, §6, §7

[4] = tested on: DLD-1 human colon carcinoma cells; experiment: In vitro activity against human tumour cell line DLD-1 (proliferation); format: cell-based; details: DLD-1, 96 h
Method: as §4, §5, §6
a) Culture supernatants are aspirated and cells fixed and stained by adding a solution of methylene blue (5 g per liter of 50% ethanol: water, 100 μl/well). After 30 minutes at room temperature unbound stain is washed off by immersing plates in water. Stained cells are solubilised overnight using 1% Sarkosyl (Sigma) in phosphate-buffered saline (100 μl/well). Absorbances are read by an ELISA plate spectrophotometer at a wavelength of 620 nm. The IC50 is defined as that concentration of drug which decreases absorbance to 50% of that in control (drug-free) cultures. This method is used for the DLD-1 cell line.

tubulin = experiment: Turbidimetric assay of tubulin polymerisation; format: biochemical, horse; details: 37° C., increase in A350nm 10 min after lag phase; read-out: Total tubulin polymerisation IC50
Method: A) Tubulin Polymerisation Assay
1. Preparation of tubulin
All manipulations are performed at 4° C. unless otherwise specified. The horse brain is washed in ice-cold BBG buffer and superficial meninges and blood vessels removed. After weighing, cerebral cortices are chopped, homogenised in 75 ml BBG buffer/100 g brain, centrifuged at 6500 g for 15 min and after removal of […], re-centrifuged at 100,000 g for 75 min. The volume of the supernatant (Vml) is measured and V/10 ml 10 mM GTP (Li salt) in H2 O added. The mixture is incubated in sealed centrifuge tubes (30 min, 34° C.) in a shaking water bath to polymerise the tubulin. After polymerisation the tubes are balanced and centrifuged at 100,000 g, (1 h at 27° C.) in a pre-warmed rotor. The high-speed pellet is resuspended in V/4 ml BB buffer and the preparation stirred on ice for 30 min and centrifuged at 100,000 g (1 h at 4° C.) to remove the cold-stable microtubules. An equal volume of BB2G buffer is added to the supernatant which is frozen rapidly in 5 ml samples in plastic weighing dishes floated on a solid CO2 /ethanol slurry, and stored overnight at -80° C. After ca. 18 hours the frozen samples of tubulin are thawed, 10 mM GTP in H2 O added to give a final concentration of 1 mM, and the new volume (Wml), is measured. The polymerisation/depolymerisation cycle is repeated exactly as above but substituting W for V to give twice-cycled tubulin.
2. Turbidimetric Assay of Tubulin Polymerisation
Apparatus: recording spectrophotometer with a 6-position, thermostatted cuvette holder; full scale deflection=0.2 absorbance units.
In a 1 ml spectrophotometer cuvette are mixed 100 μl 10 mM GTP (Li salt) made up in BB buffer, 10 μl H2 O or DMSO-depending on selected drug solvent, BB buffer and tubulin preparation such that the final increase in A350nm is 0.15 units after 16 mins (approx. 100 μl of tubulin prep. or 2.5 mg protein) in a final volume of 1 ml at 37° C. All reagents are stored on ice.
Polymerisation is initiated by raising the temperature to 37° C. and the increase in A350nm of triplicate samples against a reference cuvette is recorded. The reference sample includes a similar incubation mixture either without tubulin or with the addition of 1 mM Ca^2+. The increase over initial A350nm 10 min after the completion of lag phase (control polymerisation is 80% complete within this time) is calculated and expressed as a percentage of the control value, for a range of drug concentrations. The drug concentration required to give a 50% change (IC50) in the control value is determined.

P388/ADR = experiment: In vivo activity against drug resistant tumour P388/ADR; parameters: species or system mouse; details: optimum dose 4.5 mg/kg
Method: as §1, §2, §3

[5] = P388D1, 24 h exposure, 14 days colony growth, read-out: IC50 colony formation

SMILES: CN(Cc1cnc2nc(N)nc(N)c2n1)c1ccc(C(=O)N[C@@H](CCC(=O)O)C(=O)O)cc1 [MTX, methotrexate, reference compound]
- 60 Day Survivors (P388/MTX): 0/6
- % ILS (P388/MTX): +15%

SMILES: COC(=O)Nc1nc2ccc(C(=O)c3cccs3)cc2[nH]1 [nocodazole]
- microtubule inhibitory activity (microtubule function): microtubule inhibitory activity

SMILES: Cc1c2oc3c(C)ccc(C(=O)N[C@@H]4C(=O)N[C@H](C(C)C)C(=O)N5CCC[C@H]5C(=O)N(C)CC(=O)N(C)[C@@H](C(C)C)C(=O)O[C@@H]4C)c3nc-2c(C(=O)N[C@@H]2C(=O)N[C@H](C(C)C)C(=O)N3CCC[C@H]3C(=O)N(C)CC(=O)N(C)[C@@H](C(C)C)C(=O)O[C@@H]2C)c(N)c1=O [ActD, actinomycin D, reference compound] (I: T[dV]P[Sar][NMeV] / II: T[dV]P[Sar][NMeV]; ester I:1-I:C, II:1-II:C; linker I:N-II:N via Actinocin(9to1))
- 60 Day Survivors (P388/ActD): 0/6
- % ILS (P388/ActD): +27%

SMILES: CCOC(=O)Nc1cc2c(c(N)n1)N=C(CN(C)c1ccccc1)CN2 [NSC-181928]
- microtubule inhibitory activity (microtubule function): microtubule inhibitory activity

SMILES: O=NN(CCCl)C(=O)NCCCl [BCNU, bis-chloronitrosourea, reference compound]
- 60 Day Survivors (P388/BCNU): 0/6
- % ILS (P388/BCNU): +36%

SMILES: N.N.[Cl][Pt][Cl] [Cis--Pt, Cis-platinum, reference compound]
- 60 Day Survivors (P388/Cis--Pt): 0/6
- % ILS (P388/Cis--Pt): +21%

SMILES: CCOC(=O)Nc1ccc(SCC2COC(Cn3ccnc3)(c3ccc(Cl)cc3Cl)O2)cc1 (stereo not shown) [tubulazole]
- microtubule inhibitory activity (microtubule function): microtubule inhibitory activity

SMILES: CCOC(=O)Nc1cn2nc(OCc3cc(OC)ccc3OC)ccc2n1 [Example 2, Ethyl N-[6-(2,5-Dimethoxybenzyloxy)imidazo[1,2-b]pyridazin-2-yl]carbamate]
- ILS at 7.3 mg/kg (P388/O tumour): 31%
- IC50 (P388 D1 cells; P388D1, read-out: IC50 colony formation): 0.516 nM
- IC50 [1]: 3.42 nM
- LD50 (LD20 (Mouse)): 5 mg/kg
- IC50 [2]: 2.8 nM
- IC50 [3]: 4.57 nM
- IC50 [4]: 2.9 nM
- IC50 (tubulin): 140 nM

SMILES: COC(=O)Nc1cn2nc(OCc3cc(OC)ccc3OC)ccc2n1 [Example 3, Methyl N-[6-(2,5-Dimethoxybenzyloxy)imidazo[1,2-b]pyridazin-2-yl]carbamate]
- ILS at 50 mg/kg (P388/O tumour; 50 mg/kg i.p. days 1, 5 and 9): 136%
- IC50 (P388 D1 cells; [5]): 2.15 nM
- IC50 [1]: 1.92 nM
- LD50 (LD20 (Mouse)): 200 mg/kg
- IC50 ([2]; MTT, read-out: IC50): 1.91 nM
- IC50 ([3]; MTT, read-out: IC50): 0.92 nM
- IC50 ([4]; methylene blue, read-out: IC50): 1.35 nM
- IC50 (tubulin): 410 nM

SMILES: COc1cccc2c1C(=O)c1c(O)c3c(c(O)c1C2=O)C[C@@](O)(C(=O)CO)C[C@@H]3O[C@H]1C[C@H](N)[C@H](O)[C@H](C)O1 [ADR, adriamycin, reference compound]
- 60 Day Survivors (P388/ADR): 0/6
- % ILS (P388/ADR): +27%

SMILES: CCCCOC(=O)Nc1cn2nc(OCc3cc(OC)c(OC)c(OC)c3)ccc2n1 [Example 5, n-Butyl N-[6-(3,4,5-trimethoxybenzyloxy)imidazo[1,2-b]pyridazin-2-yl]carbamate]
- ILS at 150 mg/kg (P388/O tumour; 150 mg/kg i.p. days 1, 5 and 9): 61%
- IC50 (P388 D1 cells; [5]): 12.6 nM
- IC50 ([1]; MTT, read-out: IC50): 4.36 nM
- LD50 (LD20 (Mouse)): 140 mg/kg
- IC50 ([2]; MTT, read-out: IC50): 3.3 nM
- IC50 ([3]; MTT, read-out: IC50): 3.65 nM
- IC50 ([4]; methylene blue, read-out: IC50): 7.34 nM
- IC50 (tubulin): 490 nM

Reference: US5380759A, “Methyl N-[6-(3,4,5-trimethoxybenzloxy)imidazo[1,2-b]pyridazin-2-zyl]carbamate used to treat leukemia” (priority 1987, dated 1995)
